This is an account of results in US9493446B2, “Orexin receptor antagonists which are [ortho bi-(hetero-)aryl]-[2-(meta bi-(hetero-)aryl)-pyrrolidin-1-yl]-methanone derivatives” (Actelion Pharmaceuticals Ltd, priority 2012, dated 2016).

Test [1] has as its target human orexin-2 receptor (Homo sapiens (Human), UniProt O43614). The test is described as follows: Intracellular calcium measurement (FLIPR), CHO cells expressing human orexin-2 receptor, 3 nM orexin-A. The note with it: read-out: IC50 OX2. The format is cell-based. The essentials:
(§1)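 Fluo-4 AM-loaded CHO cells; antagonist preincubation 120 min, then 3 nM orexin-A (final) in HBSS/0.1% BSA/20 mM HEPES. FLIPR read at 1 s intervals; peak height vs. agonist-plus-vehicle control → IC50.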

Test [2] deals with orexin-1 (Homo sapiens (Human), UniProt O43613). Briefly: Intracellular calcium measurement (FLIPR), CHO cells expressing human orexin-1 receptor, 3 nM orexin-A. The format is cell-based. The note with it: read-out: IC50 OX1. The essentials: as §1
Sequence of orexin-1 (O43613 whole entry): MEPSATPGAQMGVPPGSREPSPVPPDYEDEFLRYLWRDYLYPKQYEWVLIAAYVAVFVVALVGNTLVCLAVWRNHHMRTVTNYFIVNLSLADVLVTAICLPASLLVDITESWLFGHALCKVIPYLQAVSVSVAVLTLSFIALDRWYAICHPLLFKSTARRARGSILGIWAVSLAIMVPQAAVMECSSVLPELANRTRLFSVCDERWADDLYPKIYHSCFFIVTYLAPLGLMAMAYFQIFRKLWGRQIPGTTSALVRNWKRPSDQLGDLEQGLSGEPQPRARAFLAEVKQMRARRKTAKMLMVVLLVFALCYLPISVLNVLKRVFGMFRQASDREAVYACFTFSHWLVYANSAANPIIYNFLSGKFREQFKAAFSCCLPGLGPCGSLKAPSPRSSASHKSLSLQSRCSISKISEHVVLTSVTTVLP
(A change in cytosolic calcium serves as a functional read-out for many receptors and channels.)

Setting [3] is: CHO cells expressing human orexin-2 receptor, FLIPR, 3 nM orexin-A, geometric mean if determined several times.
Setting [4] is: CHO cells expressing human orexin-1 receptor, FLIPR, 3 nM orexin-A, geometric mean if determined several times.

Where two headings read alike, the source gives them in different places.

Sequence of human orexin-2 receptor (O43614 whole entry): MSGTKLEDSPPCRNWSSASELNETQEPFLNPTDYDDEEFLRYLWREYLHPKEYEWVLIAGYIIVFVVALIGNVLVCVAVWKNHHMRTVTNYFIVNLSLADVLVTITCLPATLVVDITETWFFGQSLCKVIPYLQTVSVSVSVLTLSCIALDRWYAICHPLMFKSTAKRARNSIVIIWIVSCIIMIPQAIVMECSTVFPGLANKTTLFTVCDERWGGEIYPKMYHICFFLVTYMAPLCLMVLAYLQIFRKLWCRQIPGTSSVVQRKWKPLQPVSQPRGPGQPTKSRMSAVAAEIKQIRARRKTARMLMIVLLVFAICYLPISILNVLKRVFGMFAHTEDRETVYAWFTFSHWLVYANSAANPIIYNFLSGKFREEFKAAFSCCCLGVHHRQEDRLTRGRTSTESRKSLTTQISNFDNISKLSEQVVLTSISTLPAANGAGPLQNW

For orientation: IC50 means the midpoint of a concentration-inhibition curve. For `C[C@@]1(c2nc(-c3ccccc3)no2)CCCN1C(=O)c1ncsc1-c1cccc(Cl)c1` [compound 538], the IC50 turned out to be 2810 nM in test [1] (setting [3]) and 941 nM in test [2] (setting [4]).

As to `Cc1cccc(-c2ocnc2C(=O)N2CCC[C@@]2(C)c2nc(-c3ccccc3)no2)c1` [compound 539, [(S)-2-Methyl-2-(3-phenyl-[1,2,4]oxadiazol-5-yl)-pyrrolidin-1-yl]-(5-m-tolyl-oxazol-4-yl)-methanone], the IC50 in test [1] (setting [3]) stood at 1780 nM; in test [2] (setting [4]), 560 nM.

As for `Cc1ccc(C(=O)N2CCC[C@@]2(C)c2nnc(-c3ccccc3OC(F)(F)F)[nH]2)c(-n2nccn2)c1` [compound 543, (4-Methyl-2-[1,2,3]triazol-2-yl-phenyl)-{(S)-2-methyl-2-[5-(2-trifluoromethoxy-phenyl)-4H-[1,2,4]triazol-3-yl]-pyrrolidin-1-yl}-methanone], the IC50 in test [1] (setting [3]) turned out to be 20 nM; in test [2] (setting [4]), 10 nM.

For the compound `Cc1cc(-n2nccn2)c(C(=O)N2CCC[C@@]2(C)c2nnc(-c3ccccc3OC(F)(F)F)[nH]2)cc1Cl` [compound 545], the IC50 in test [1] is 8 nM; in test [2] (setting [4]) it was 4 nM.

Consider `Cc1cc(C(=O)N2CCC[C@@]2(C)c2nnc(-c3ccccc3OC(F)(F)F)[nH]2)c(-n2nccn2)cc1C` [compound 546, (4,5-Dimethyl-2-[1,2,3]triazol-2-yl-phenyl)-{(S)-2-methyl-2-[5-(2-trifluoromethoxy-phenyl)-4H-[1,2,4]triazol-3-yl]-pyrrolidin-1-yl}-methanone], for which the IC50 came out at 8 nM in test [1] (setting [3]) and 4 nM in test [2] (setting [4]).

For `C[C@@]1(c2nnc(-c3ccccc3OC(F)(F)F)[nH]2)CCCN1C(=O)c1cc(Cl)ccc1-n1nccn1` [compound 547], the figures for the IC50 in test [1] (setting [3]) and in test [2] (setting [4]) were 34 nM and 25 nM, respectively.

`Cc1ccc(C(=O)N2CCC[C@@]2(C)c2nnc(-c3ccccc3OC(F)(F)F)[nH]2)c(-c2ccccc2)c1` [compound 548, (5-Methyl-biphenyl-2-yl)-{(S)-2-methyl-2-[5-(2-trifluoromethoxy-phenyl)-4H-[1,2,4]triazol-3-yl]-pyrrolidin-1-yl}-methanone]: the IC50 in test [1] (setting [3]) came to 65 nM; in test [2] (setting [4]) it was 35 nM.

Regarding `Cc1ccc(-c2ccccc2)c(C(=O)N2CCC[C@@]2(C)c2nnc(-c3ccccc3OC(F)(F)F)[nH]2)c1` [compound 549, (4-Methyl-biphenyl-2-yl)-{(S)-2-methyl-2-[5-(2-trifluoromethoxy-phenyl)-4H-[1,2,4]triazol-3-yl]-pyrrolidin-1-yl}-methanone], the results for the IC50 in test [1] (setting [3]) and in test [2] (setting [4]) were 64 nM and 31 nM, respectively.

For the compound `Cc1ccc(-n2nccn2)c(C(=O)N2CCC[C@@]2(C)c2nnc(-c3cccc(Cl)c3C)[nH]2)c1` [compound 550], the IC50 in test [1] (setting [3]) came out at 178 nM; in test [2] (setting [4]) it was 272 nM.

For the compound `Cc1ccc(C(=O)N2CCC[C@@]2(C)c2nnc(-c3cccc(Cl)c3C)[nH]2)c(-n2nccn2)c1` [compound 551], the IC50 in test [1] (setting [3]) came to 24 nM; in test [2] (setting [4]) it was 43 nM.

Consider `Cc1cc(-n2nccn2)c(C(=O)N2CCC[C@@]2(C)c2nnc(-c3cccc(Cl)c3C)[nH]2)cc1Cl` [compound 552], for which the values for the IC50 in test [1] (setting [3]) and in test [2] (setting [4]) were 7 nM and 9 nM, respectively.

On to `Cc1cc(C(=O)N2CCC[C@@]2(C)c2nnc(-c3cccc(Cl)c3C)[nH]2)c(-n2nccn2)cc1C` [compound 553], for which the results for the IC50 in test [1] (setting [3]) and in test [2] (setting [4]) were 6 nM and 14 nM, respectively.

`Cc1c(Cl)cccc1-c1nnc([C@]2(C)CCCN2C(=O)c2cc(Cl)ccc2-n2nccn2)[nH]1` [compound 554]: the IC50 in test [1] came out at 34 nM; in test [2] (setting [4]), 120 nM.

On to `Cc1c(Cl)cccc1-c1nnc([C@]2(C)CCCN2C(=O)c2ccc(Cl)cc2-n2nccn2)[nH]1` [compound 555], for which the IC50 in test [1] (setting [3]) came out at 11 nM; in test [2] (setting [4]) it was 27 nM.

As for `Cc1ccc(-c2ccccc2)c(C(=O)N2CCC[C@@]2(C)c2nnc(-c3cccc(Cl)c3C)[nH]2)c1` [compound 556], the IC50 in test [1] (setting [3]) worked out at 857 nM; in test [2] (setting [4]), 870 nM.

As to `Cc1ccc(C(=O)N2CCC[C@@]2(C)c2nnc(-c3cccc(Cl)c3C)[nH]2)c(-c2ccccc2)c1` [compound 557], the IC50 stood at 224 nM in test [1] (setting [3]) and 292 nM in test [2] (setting [4]).

For the compound “(4,5-Dimethyl-2-[1,2,3]triazol-2-yl-phenyl)-{(S)-2-[5-(2-trifluoromethoxy-phenyl)-[1,2,4]oxadiazol-3-yl]-pyrrolidin-1-yl}-methanone [Example 304]”, the IC50 in test [1] (setting [3]) came out at 3 nM; in test [2] (setting [4]), 4 nM.

Take “Furan-3-yl-[(S)-2-(3-o-tolyl-[1,2,4]oxadiazol-5-yl)-pyrrolidin-1-yl]-methanone [Reference compound 6, reference compound]”: the IC50 in test [1] (setting [3]) turned out to be 27 nM; in test [2], 21 nM.

On to “Furan-3-yl-[(S)-2-(3-phenyl-[1,2,4]oxadiazol-5-yl)-pyrrolidin-1-yl]-methanone [Reference compound 4, reference compound]”, for which the IC50 was 897 nM in test [1] (setting [3]) and greater than 5040 nM in test [2].

“Thiophen-2-yl-[(S)-2-(3-o-tolyl-[1,2,4]oxadiazol-5-yl)-pyrrolidin-1-yl]-methanone [Reference compound 3, reference compound]”: the IC50 in test [1] was 34 nM; in test [2] (setting [4]) it was 182 nM.

In the case of “[3-(2-Chloro-phenyl)-5-methyl-isoxazol-4-yl]-{(S)-2-[3-(2-trifluoromethoxy-phenyl)-[1,2,4]oxadiazol-5-yl]-pyrrolidin-1-yl}-methanone [Reference compound 10, reference compound]”, the IC50 in test [1] (setting [3]) amounted to 150 nM; in test [2] (setting [4]), 1040 nM.

“{(S)-2-[3-(3-Chloro-phenyl)-[1,2,4]oxadiazol-5-yl]-pyrrolidin-1-yl}-furan-3-yl-methanone [Reference compound 5, reference compound]”: the half-inhibitory concentration (IC50) in test [1] (setting [3]) was 554 nM; in test [2] (setting [4]), 403 nM.

With “{(S)-2-[3-(3-Chloro-phenyl)-[1,2,4]oxadiazol-5-yl]-pyrrolidin-1-yl}-thiophen-2-yl-methanone [Reference compound 2, reference compound]”, the figures for the IC50 in test [1] (setting [3]) and in test [2] (setting [4]) were 41 nM and 253 nM, respectively.

“{(S)-2-[5-(3-Chloro-2-methyl-phenyl)-[1,2,4]oxadiazol-3-yl]-pyrrolidin-1-yl}-[3-(2-chloro-phenyl)-5-methyl-isoxazol-4-yl]-methanone [Reference compound 8, reference compound]”: the IC50 in test [1] (setting [3]) turned out to be 74 nM; in test [2] (setting [4]), 156 nM.

Consider “{(S)-2-[5-(3-Chloro-2-methyl-phenyl)-[1,3,4]oxadiazol-2-yl]-pyrrolidin-1-yl}-[3-(2-chloro-phenyl)-5-methyl-isoxazol-4-yl]-methanone [Reference compound 9, reference compound]”, for which the IC50 in test [1] (setting [3]) was determined as 242 nM; in test [2], 853 nM.
